In PubChem BioAssay (NCI):
Several values for one entry are separate records, joined by “and”; a condition that tells them apart may be missing. Identical values can stand only once.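 Five concentrations, 48 hours, 96-well plates. Here, GI50 denotes the concentration required for 50% inhibition of growth. At the TGI there is no net growth.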

How the values were obtained:
Assay in all cases: growth of human tumour cells (NCI), 48 h
IGROV1 ovarian = tested on: IGROV1 ovarian
SK-MEL-5 melanoma = tested on: SK-MEL-5 melanoma
HT29 colon = tested on: HT29 colon
HCT-15 colon = tested on: HCT-15 colon
RXF 393 renal = tested on: RXF 393 renal
TK-10 renal = tested on: TK-10 renal
SNB-75 CNS = tested on: SNB-75 CNS
UACC-257 melanoma = tested on: UACC-257 melanoma
K-562 leukemia = tested on: K-562 leukemia
UO-31 renal = tested on: UO-31 renal
SK-MEL-2 melanoma = tested on: SK-MEL-2 melanoma
SF-268 CNS = tested on: SF-268 CNS
SNB-19 CNS = tested on: SNB-19 CNS

SMILES	TGI (IGROV1 ovarian) [µM]	TGI (SK-MEL-5 melanoma) [µM]	TGI (HT29 colon) [µM]	TGI (HCT-15 colon)	TGI (RXF 393 renal) [µM]	TGI (TK-10 renal) [µM]	TGI (SNB-75 CNS) [µM]	TGI (UACC-257 melanoma) [µM]	TGI (K-562 leukemia) [µM]	TGI (UO-31 renal)	TGI (SK-MEL-2 melanoma) [µM]	TGI (SF-268 CNS) [µM]	TGI (SNB-19 CNS) [µM]	GI50 (HCT-15 colon) [µM]	GI50 (TK-10 renal) [µM]	GI50 (HT29 colon) [µM]	GI50 (SNB-75 CNS) [µM]	GI50 (UACC-257 melanoma) [µM]	GI50 (SK-MEL-2 melanoma) [µM]	GI50 (SF-268 CNS) [µM]
CCCCCCC(=O)OC[n+]1ccc(-c2c(COC(=O)NC(C)C)c(COC(=O)NC(C)C)c3n2CCC3)cc1	> 100	> 100	> 100	> 100 µM	> 100	> 100	> 100	> 100	> 100	> 100 µM	> 100	> 100	> 100							
O=C(c1ccccc1)c1ccc(N2C(=O)/C(=C/c3cccc(Oc4ccccc4)c3)N=C2c2ccccc2)c(N2C(=O)/C(=C/c3cccc(Oc4ccccc4)c3)N=C2c2ccccc2)c1	> 100	30.7	> 100	> 100 µM	> 100	79.4	> 100	71.7	> 100	> 100 µM	71.2	> 100	> 100							
COc1nc(=O)[nH]c2c1C(c1ccc([N+](=O)[O-])cc1)c1c(OC)nc(=O)[nH]c1O2	> 100	> 100	> 100	> 100 µM	> 100	> 100		> 100		> 100 µM	> 100	> 100	> 100							
CC(C)=CCC/C(C)=C/Cc1c2c(c3oc(-c4ccc(O)c(O)c4)c(O)c(=O)c3c1O)C=CC(C)(C)O2	8.5	9.86	9.79	8.39 µM	18.6	11.2	11.6	11.2	9.63	10.2 µM	13.7	10.7	12.5							
O=C(O)C1=C(CO)Oc2cc3c(cc2C1c1ccc2c(c1)OCO2)OCO3 (configuration not stated)	> 100	> 100	> 100	> 100 µM	> 100	> 100	> 100	> 100	> 100	> 100 µM	> 100		> 100							
CCCCC(CC)C(=O)Oc1ccc(C(=O)c2ccccc2)c(O)c1 (configuration not stated)	> 100	> 100	> 100	> 100 µM	> 100	> 100	74.3	> 100	> 100	> 100 µM	> 100	> 100	> 100							
CCn1c2ccccc2c2ccc(C3C4C(=O)N(c5cccc6ccccc56)C(=O)C4ON3C(C(N)=O)c3ccccc3)cc21 (configuration not stated)	> 25	> 25	> 25	> 25 µM	> 25	21.8	> 25	> 25	> 25	> 25 µM	> 25	> 25	> 25							
NC1=NC(c2ccc(Cl)cc2)=CC(c2cccc(Cl)c2)S1 (configuration not stated)	> 100	80.7	> 100	33.2 µM	77.1	60.7		81.7	> 100	84.6 µM	55.5	> 100	44.9							
Cc1ccc(C(=O)NC2C(=O)NC(C(C)C)C(=O)N3CCCC3C(=O)N(C)CC(=O)N(C)C(C(C)C)C(=O)OC2C)c2c1Oc1c(c(C(=O)NC3C(=O)NC(C(C)C)C(=O)N4CCCC4C(=O)N(C)CC(=O)N(C)C(C(C)C)C(=O)OC3C)c3nc(-c4ccccc4)c(=O)oc3c1C)N2 (configuration not stated)	13.3	0.0149		0.646 µM and 0.318 µM	0.00911	11.4	0.0132	0.122		0.194 µM and 0.122 µM	0.00278		21.4	0.0159	0.013					
CCOC(=O)N1c2ccccc2N(C(=O)OCC)C1CC(=O)/C=C/c1ccccc1	17.8	8.92	8.41	12.9 µM	13.8	14.4	9.92	21.9	> 30.7	14.7 µM	7.38	9.82	16.8							
CC1CC(C)(O)C2C3(C)CCCC2(COC3=O)C12CCC1(CCOC1=O)O2 (configuration not stated)	> 250	> 250	> 250	> 250 µM	> 250		> 250	> 250	> 250	> 250 µM	> 250	> 250	> 250							
COC(=O)[C@]12CC[C@H]3CN(S(=O)(=O)c4ccc(C)cc4)[C@H]([C@H]31)[C@H](c1ccco1)N2S(=O)(=O)c1ccc(C)cc1	> 100	> 100	> 100	> 100 µM	71.5	> 100		81.1	> 100	> 100 µM	> 100	> 100	> 100							
CCOC(=O)C(C(=O)OCC)c1cc(-c2cc3ccccc3o2)oc(=O)c1C#N	80	> 100	35	35.7 µM	43.5	52.1	90.6	76.4	> 100	90.3 µM	38.2	> 100	> 100							
CCCCC/C=C\C=C\CCCCCCCCC(=O)OC	> 100	> 100	> 100	> 100 µM	> 100	> 100	> 100	> 100	> 100	31.3 µM	> 100	> 100	> 100							
Nc1[nH]c(=O)nc2c1cnn2COCCO	> 100	> 100	> 100	> 100 µM	93.7	99.9	> 100	> 100	> 100	> 100 µM	> 100	> 100	> 100							
C/C(=C\[Si](C)(C)c1ccco1)C(C)(O)[C@H](C)O (some centres not stated)	> 100	> 100	> 100	> 100 µM		> 100		96.3	> 100		> 100	> 100	> 100							

SMILES	TGI (IGROV1 ovarian) [µM]	TGI (SK-MEL-5 melanoma) [µM]	TGI (HT29 colon) [µM]	TGI (HCT-15 colon)	TGI (RXF 393 renal) [µM]	TGI (TK-10 renal) [µM]	TGI (SNB-75 CNS) [µM]	TGI (UACC-257 melanoma) [µM]	TGI (K-562 leukemia) [µM]	TGI (UO-31 renal)	TGI (SK-MEL-2 melanoma) [µM]	TGI (SF-268 CNS) [µM]	TGI (SNB-19 CNS) [µM]	GI50 (HCT-15 colon) [µM]	GI50 (TK-10 renal) [µM]	GI50 (HT29 colon) [µM]	GI50 (SNB-75 CNS) [µM]	GI50 (UACC-257 melanoma) [µM]	GI50 (SK-MEL-2 melanoma) [µM]	GI50 (SF-268 CNS) [µM]
C=C(C)[C@@H]1CC[C@]2(C(=O)O)CC[C@]3(C)[C@H](CC[C@@H]4[C@@]5(C)C/C(=C/c6ccco6)C(=O)C(C)(C)[C@@H]5CC[C@]43C)[C@@H]12			> 100	10.5 µM		46.9	> 100	> 100			8.85	> 100		2.59	3.65	3.05	> 100	3.12	2.75	3.63
CC(C)CC(N)C(=O)NC(CNC(CCC(N)=O)C(=O)NC(CC(C)C)C(=O)NC(CC(C)C)C(=O)O)Cc1ccc2ccccc2c1 (configuration not stated)	> 10	> 10	> 10	> 10 µM	> 10	> 10	> 10	> 10	> 10	> 10 µM	> 10	> 10	> 10							
CN(C)CCC(=O)[C@@]1(O)CC[C@H]2[C@@H]3CC=C4C[C@@H](O)CC[C@]4(C)[C@H]3CC[C@@]21C	34.3	> 81.8	37.5	45.1 µM	23.1	6.96	29.5	26.1	48.9	31.7 µM	37.1	32.2	> 64.8							
CCCCCCCCCCCCCCCCCCN(C)CC(COC)OP(=O)([O-])OCC[N+](C)(C)C (configuration not stated)	1.52	23.7	4.66	13.6 µM	2.29	3.06	3.68	22.7	40.2	20.2 µM	30.2	4.17	2.5							
CC(=O)NC1C(OCc2ccccc2)OC(CO)C(O)C1OCC(=O)NC(C(=O)NC(CCC(=O)NCCCCCC(=O)Nc1ccc2c(c1)CN1C(=O)c3ccccc3C1=N2)C(N)=O)C(C)C (configuration not stated)	50.4	49.6	> 100	> 100 µM	45	39.6	41.1	66.7	> 100	> 100 µM	64.8	41.8	47.7							
C/C=C\C1OC1(C)c1cc(=O)c2c(C)cc3c(c2o1)C(=O)c1c(O)c(C2CC(C)(N(C)C)C(OC(C)=O)C(C)O2)cc(C2CC(N(C)C)C(O)C(C)O2)c1C3=O (configuration not stated)	0.183	0.00936	1.93	0.0291 µM	0.00746	1.47	0.0067	0.0366	0.135	0.0106 µM	0.00657	0.0721	0.103							
CC(C)N(CC(=O)O)CC(=O)O	> 100	> 100	> 100	> 100 µM	> 100	> 100	> 100	> 100	> 100	> 100 µM	> 100	> 100	> 100							
Nc1ccc(Oc2ccc(C34CC5C6CC7(c8ccc(Oc9ccc(N)cc9)cc8)CC5C(C3)C(C7)C6C4)cc2)cc1	> 100	> 100	> 100	> 100 µM	> 100	> 100		> 100	> 100	> 100 µM	> 100	> 100	> 100							
O=C(c1ccccc1)c1ccc(N2C(=O)/C(=C/c3ccccc3S)N=C2c2ccccc2)c(N2C(=O)/C(=C/c3ccccc3S)N=C2c2ccccc2)c1	> 100	87.6	> 100	> 100 µM		> 100	65.8	> 100	> 100	> 100 µM	57.3	> 100	> 100							
O=C1c2cc3c(cc2[C@@H]2C(O)[C@H]4O[C@H]4C4CCN1C42)OCO3 (some centres not stated)	> 37.5		> 37.5	> 37.5 µM		> 37.5			> 37.5	> 37.5 µM	> 37.5	> 37.5	> 37.5							
Cc1nn(CNc2ccc(F)c(Cl)c2)c(=S)n1/N=C/c1ccc(-c2ccc(Cl)cc2Cl)o1	34.6	35.1	41.4	41.6 µM	34.3	28.9		46.9	15.5	32.2 µM	41.3	34.6								
C=C1N(C)c2ccc(S(=O)(=O)c3ccc4c(c3)C(C)(C)C(=C)N4C)cc2C1(C)C	> 100	43.6	> 100	> 100 µM		> 100	62.7	> 100		> 100 µM	> 100	> 100	> 100							
O=P1(Oc2ccc(Cl)cc2Cl)Oc2cc3ccccc3cc2O1	> 100	> 100	> 100	> 100 µM	> 100		> 100	> 100	> 100	> 100 µM	> 100	> 100	> 100							
Cc1csc2nc(-c3cc([N+](=O)[O-])c(Cl)cc3Cl)c(/C=N/N=C(N)N)n12	30	30.9	30.5	45.2 µM	35	32.4		32.8	20.4	29.4 µM	26.1	39.7	36.5							
Nc1ccc(-c2nc3ccccc3s2)cc1CO	> 100	> 100	> 100	> 100 µM	> 100	> 100	> 100	> 100	> 100	> 100 µM	> 100	> 100	> 100							
